# Biological target: T1, AhR (Homo sapiens, UniProt P35869)
# T1 sequence (P35869 11-848): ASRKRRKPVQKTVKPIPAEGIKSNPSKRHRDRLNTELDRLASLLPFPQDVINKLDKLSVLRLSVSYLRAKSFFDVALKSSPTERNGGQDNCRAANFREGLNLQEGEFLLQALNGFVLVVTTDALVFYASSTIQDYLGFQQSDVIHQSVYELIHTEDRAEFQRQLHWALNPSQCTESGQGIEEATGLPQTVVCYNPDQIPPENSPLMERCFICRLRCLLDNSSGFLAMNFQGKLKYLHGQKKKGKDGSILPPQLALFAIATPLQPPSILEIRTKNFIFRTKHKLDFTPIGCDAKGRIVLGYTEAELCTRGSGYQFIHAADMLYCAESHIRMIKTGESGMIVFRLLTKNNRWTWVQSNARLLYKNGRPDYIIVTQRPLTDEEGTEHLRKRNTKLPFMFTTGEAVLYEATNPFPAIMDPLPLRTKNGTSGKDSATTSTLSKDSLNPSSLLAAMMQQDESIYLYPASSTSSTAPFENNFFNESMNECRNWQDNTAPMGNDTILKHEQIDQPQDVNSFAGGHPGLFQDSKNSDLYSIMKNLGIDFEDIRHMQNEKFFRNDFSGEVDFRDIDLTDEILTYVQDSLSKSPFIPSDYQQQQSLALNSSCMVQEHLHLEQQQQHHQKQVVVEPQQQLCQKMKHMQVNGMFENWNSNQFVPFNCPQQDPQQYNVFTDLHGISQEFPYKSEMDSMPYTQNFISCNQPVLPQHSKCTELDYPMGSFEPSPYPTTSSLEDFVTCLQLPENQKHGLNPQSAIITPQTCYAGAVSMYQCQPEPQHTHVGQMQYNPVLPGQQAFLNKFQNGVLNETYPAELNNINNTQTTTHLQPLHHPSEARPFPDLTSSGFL
# Experiment: In Vitro Assay 1: XRE-luciferase reporter assay, antagonism in human cell line (HepG2)
# Settings: Assay 1: AhR-Luc Human Antagonism (IC50, nM), values marked *: kynurenine 50 μM, 6 hours
row,IC50 [nM],SMILES
1,> 1000,"O[C@@H]1CCCC[C@H]1Nc1cc(-c2ccc(Cl)cc2)nc(-c2cccnc2)n1 (relative stereo) [Example 35, trans-2-((6-(4-chlorophenyl)-2-(pyridin-3-yl)pyrimidin-4-yl)amino)cyclohexan-1-ol]"
2,10 to 100,"O[C@@H]1CCC[C@H]1Nc1cc(-c2ccc(Cl)cc2)nc(-c2cccnc2)n1 (relative stereo) [Example 68, trans-2-((6-(4-chlorophenyl)-2-(pyridin-3-yl)pyrimidin-4-yl)amino)cyclopentan-1-ol]"
3,> 1000,"C[C@@H]1CN(c2cc(-c3ccc(Cl)cc3)nc(-c3cccnc3)n2)[C@@H](C)CN1 (relative stereo) [Example 103, Trans-4-(4-chlorophenyl)-6-(2,5-dimethylpiperazin-1-yl)-2-(pyridin-3-yl)pyrimidine]"
4,> 1000,"Clc1ccc(-c2cc(N[C@@H]3COC[C@H]3N3CCCC3)nc(-c3cccnc3)n2)cc1 (relative stereo) [Example 201, Trans-6-(4-chlorophenyl)-2-(pyridin-3-yl)-N-(4-(pyrrolidin-1-yl)tetrahydrofuran-3-yl)pyrimidin-4-amine]"
5,> 1000,"CC(C)N1C[C@@H](O)[C@H](Nc2cc(-c3ccc(Cl)cc3)nc(-c3cccnc3)n2)C1 (relative stereo) [Example 209, Trans-4-((6-(4-chlorophenyl)-2-(pyridin-3-yl)pyrimidin-4-yl)amino)-1-isopropylpyrrolidin-3-ol]"
6,100 to 1000,"C[C@@H](CO)Nc1cc(-c2ccc(Cl)cc2)nc(-c2cccnc2)n1 [Example 2, (S)-2-((6-(4-chlorophenyl)-2-(pyridin-3-yl)pyrimidin-4-yl)amino)propan-1-ol]"
7,100 to 1000,"C[C@@H](CO)Nc1nc(-c2ccc(Cl)cc2)cc(-c2cccnc2)n1 [Example 3, (S)-2-((4-(4-chlorophenyl)-6-(pyridin-3-yl)pyrimidin-2-yl)amino)propan-1-ol]"
8,100 to 1000,"CC(C)(CO)Nc1cc(-c2ccc(Cl)cc2)nc(-c2cccnc2)n1 [Example 4, 2-((6-(4-chlorophenyl)-2-(pyridin-3-yl)pyrimidin-4-yl)amino)-2-methylpropan-1-ol]"
9,> 1000,"CC(C)(CO)Nc1nc(-c2ccc(Cl)cc2)cc(-c2cccnc2)n1 [Example 5, 2-((4-(4-chlorophenyl)-6-(pyridin-3-yl)pyrimidin-2-yl)amino)-2-methylpropan-1-ol]"
10,100 to 1000,"OCCNc1cc(-c2ccc(Cl)cc2)nc(-c2cccnc2)n1 [Example 6, 2-((6-(4-chlorophenyl)-2-(pyridin-3-yl)pyrimidin-4-yl)amino)ethan-1-ol]"
11,> 1000,"OCCCNc1cc(-c2ccc(Cl)cc2)nc(-c2cccnc2)n1 [Example 7, 3-((6-(4-chlorophenyl)-2-(pyridin-3-yl)pyrimidin-4-yl)amino)propan-1-ol]"
12,100 to 1000,"C[C@H](O)CNc1cc(-c2ccc(Cl)cc2)nc(-c2cccnc2)n1 [Example 8, (S)-1-((6-(4-chlorophenyl)-2-(pyridin-3-yl)pyrimidin-4-yl)amino)propan-2-ol]"
13,100 to 1000,"C[C@@H](O)CNc1cc(-c2ccc(Cl)cc2)nc(-c2cccnc2)n1 [Example 9, (R)-1-((6-(4-chlorophenyl)-2-(pyridin-3-yl)pyrimidin-4-yl)amino)propan-2-ol]"
14,100 to 1000,"OCC(O)CNc1cc(-c2ccc(Cl)cc2)nc(-c2cccnc2)n1 (stereo not shown) [Example 10, 3-((6-(4-chlorophenyl)-2-(pyridin-3-yl)pyrimidin-4-yl)amino)propane-1,2-diol]"
15,10 to 100,"C[C@H](CO)Nc1cc(-c2ccc(Cl)cc2)nc(-c2cccnc2)n1 [Example 11, (R)-2-((6-(4-chlorophenyl)-2-(pyridin-3-yl)pyrimidin-4-yl)amino)propan-1-ol]"
16,100 to 1000,"CC(C)C(CO)Nc1cc(-c2ccc(Cl)cc2)nc(-c2cccnc2)n1 (stereo not shown) [Example 12, 2-((6-(4-chlorophenyl)-2-(pyridin-3-yl)pyrimidin-4-yl)amino)-3-methylbutan-1-ol]"

row,IC50 [nM],SMILES
1,> 1000,"CC(C)[C@@H](CO)Nc1cc(-c2ccc(Cl)cc2)nc(-c2cccnc2)n1 [Example 13, (S)-2-((6-(4-chlorophenyl)-2-(pyridin-3-yl)pyrimidin-4-yl)amino)-3-methylbutan-1-ol]"
2,> 1000,"CC(C)[C@H](CO)Nc1cc(-c2ccc(Cl)cc2)nc(-c2cccnc2)n1 [Example 14, (R)-2-((6-(4-chlorophenyl)-2-(pyridin-3-yl)pyrimidin-4-yl)amino)-3-methylbutan-1-ol]"
3,> 1000,"CCC(CO)Nc1cc(-c2ccc(Cl)cc2)nc(-c2cccnc2)n1 (stereo not shown) [Example 15, 2-((6-(4-chlorophenyl)-2-(pyridin-3-yl)pyrimidin-4-yl)amino)butan-1-ol]"
4,> 1000,"OCC(CO)Nc1cc(-c2ccc(Cl)cc2)nc(-c2cccnc2)n1 [Example 16, 2-((6-(4-chlorophenyl)-2-(pyridin-3-yl)pyrimidin-4-yl)amino)propane-1,3-diol]"
5,> 1000,"O[C@@H](CNc1cc(-c2ccc(Cl)cc2)nc(-c2cccnc2)n1)c1ccccc1 [Example 17, (R)-2-((6-(4-chlorophenyl)-2-(pyridin-3-yl)pyrimidin-4-yl)amino)-1-phenylethan-1-ol]"
6,> 1000,"O[C@H](CNc1cc(-c2ccc(Cl)cc2)nc(-c2cccnc2)n1)c1ccccc1 [Example 18, (S)-2-((6-(4-chlorophenyl)-2-(pyridin-3-yl)pyrimidin-4-yl)amino)-1-phenylethan-1-ol]"
7,100 to 1000,"Clc1ccc(-c2cc(NCC3CCOCC3)nc(-c3cccnc3)n2)cc1 [Example 19, 6-(4-chlorophenyl)-2-(pyridin-3-yl)-N-((tetrahydro-2H-pyran-4-yl)methyl)pyrimidin-4-amine]"
8,> 1000,"CN(C)CCCNc1cc(-c2ccc(Cl)cc2)nc(-c2cccnc2)n1 [Example 20, N^1-(6-(4-chlorophenyl)-2-(pyridin-3-yl)pyrimidin-4-yl)-N^3,N^3-dimethylpropane-1,3-diamine]"
9,100 to 1000,"CCNc1cc(-c2ccc(Cl)cc2)nc(-c2cccnc2)n1 [Example 21, 6-(4-chlorophenyl)-N-ethyl-2-(pyridin-3-yl)pyrimidin-4-amine]"
10,100 to 1000,"CCCNc1cc(-c2ccc(Cl)cc2)nc(-c2cccnc2)n1 [Example 22, 6-(4-chlorophenyl)-N-propyl-2-(pyridin-3-yl)pyrimidin-4-amine]"
11,> 1000,"CCCCNc1cc(-c2ccc(Cl)cc2)nc(-c2cccnc2)n1 [Example 23, N-butyl-6-(4-chlorophenyl)-2-(pyridin-3-yl)pyrimidin-4-amine]"
12,100 to 1000,"CCC(O)CNc1cc(-c2ccc(Cl)cc2)nc(-c2cccnc2)n1 (stereo not shown) [Example 24, 1-((6-(4-chlorophenyl)-2-(pyridin-3-yl)pyrimidin-4-yl)amino)butan-2-ol]"
13,> 1000,"Clc1ccc(-c2cc(NCC3CC3)nc(-c3cccnc3)n2)cc1 [Example 25, 6-(4-chlorophenyl)-N-(cyclopropylmethyl)-2-(pyridin-3-yl)pyrimidin-4-amine]"
14,> 1000,"Clc1ccc(-c2cc(NC3CCCC3)nc(-c3cccnc3)n2)cc1 [Example 26, 6-(4-chlorophenyl)-N-cyclopentyl-2-(pyridin-3-yl)pyrimidin-4-amine]"
15,> 1000,"CC(C)(C)Nc1cc(-c2ccc(Cl)cc2)nc(-c2cccnc2)n1 [Example 28, N-(tert-butyl)-6-(4-chlorophenyl)-2-(pyridin-3-yl)pyrimidin-4-amine]"

# Source: patent US20230150970A1, “AMINOPYRIMIDINE DERIVATIVES AND THEIR USE AS ARYL HYDROCARBON RECEPTOR MODULATORS” (DONG-A ST CO., LTD., priority 2020, published 2023)
